Test results reported in patent publication US5604095A, “Unsymmetrically linked bisnaphthalimides as antitumor agents” (Cancer Therapy & Research Center, priority 1994, dated 1997).
pIC50: −log10 of the molar value. Like-named read-outs stand apart in the source and are kept apart here.

Legend:
[1] = target: Lambda DNA; experiment: Ethidium bromide displacement assay, Lambda DNA; format: binding; conditions: 50% reduction of ethidium bromide fluorescence, pH 7.0, read-out: FI50 (the source's name)
Experimental: (§1) Stock Solutions. A 10X Binding solution was prepared by combining 0.93 ml of an aqueous NaCl solution (5M), 2.0 ml of an aqueous Tris HCl (500 mM) solution, 0.1 ml of an EDTA solution (500 mM) and 46.97 ml of water. The resultant solution was 93 mM in NaCl, 20 mM in Tris HCl, and 1 mM in EDTA. Stock DNA solution were prepared as follows: Poly (dG.dC)-(dG.dC) (ε254=8.4/mM; 27-7910-02), poly (dA.dT)-(dA.dT) (ε262=6.6/mM; 27-7870-02), and lambda DNA (δ260-7.0/mM; 27-4111-01) were purchased from Pharmacia. Solutions were prepared by resuspending either poly (dG.dC)-(dG.dC) or poly (dA.dT)-(dA.dT)in 1 ml of 10X DNA Binding Solution. Lambda DNA is already in solution as purchased.
(§2) Determination of concentration of the stock DNA solutions. Poly (dG.dC) - (dG.dC), poly (dA.dt) - (dA.dt) and lambda DNA concentrations were determined as follows: 980 μl of 10X DNA Binding Solution was pipetted into a 1 ml cuvette. […] The sample was then scanned between 210 nm to 500 nm and the absorbance recorded at 254 nm for poly (dG.dC)-(dG.dC), at 262 nm for poly (dA.dT)-(dA.dT) and at 260 nm for lambda DNA. […] This procedure was followed for three different solutions with the absorbance taken as the average of the three. The concentration of poly (dG.dC)-(dG.dC) stock was calculated to be A254 /8.4×1000 (in μM). The concentration of poly (dA.dT) - (dA.dT) stock was calculated to be A262 /6.6×1000 (in μM). […]

[2] = target: poly-(dG.dC)-poly-(dG.dC); experiment: Ethidium bromide displacement assay, poly(dG.dC)-poly(dG.dC); format: binding; conditions: 50% reduction of ethidium bromide fluorescence, pH 7.0, read-out: FI50 (the source's name)
Experimental: as §1, §2

[3] = target: poly-(dA.dT)-poly-(dA.dT); experiment: Ethidium bromide displacement assay, poly(dA.dT)-poly(dA.dT); format: binding; conditions: 50% reduction of ethidium bromide fluorescence, pH 7.0, read-out: FI50 (the source's name)
Experimental: as §1, §2

[4] = test system: DNA; experiment: Ethidium bromide displacement assay, DNA binding and AT/GC selectivity; conditions: for Ratio (AT/GC): FI50 poly(dA.dT) / FI50 poly(dG.dC)
Experimental: as §1
Determination of concentration of the stock DNA solutions. Poly (dG.dC) - (dG.dC), poly (dA.dt) - (dA.dt) and lambda DNA concentrations were determined as follows: 980 μl of 10X DNA Binding Solution was pipetted into a 1 ml cuvette. A blank was run on the UV spectrophotometer. 20 μl of the DNA stock of unknown concentration was then added into the cuvette. The sample was then scanned between 210 nm to 500 nm and the absorbance recorded at 254 nm for poly (dG.dC)-(dG.dC), at 262 nm for poly (dA.dT)-(dA.dT) and at 260 nm for lambda DNA. The solution was transferred to a clean tube. This procedure was followed for three different solutions with the absorbance taken as the average of the three. The concentration of poly (dG.dC)-(dG.dC) stock was calculated to be A254 /8.4×1000 (in μM). The concentration of poly (dA.dT) - (dA.dT) stock was calculated to be A262 /6.6×1000 (in μM). The concentration of lambda DNA stock was calculated to be A260 /7.0×1000 (in μM).
Ethidium Bromide Displacement Assay. The binding of the bis-naphthalimides to DNA and to synthetic polynucleotide duplexes was determined by an ethidium bromide displacement assay that measures the reduction of fluorescence when ethidium bromide is displaced from DNA (Baguley, 1981). The fluorescence intensity of a 3 ml solution containing 9.3 mM NaCl, 2 mM Tris-HCI (pH 7.0), 100 μM EDTA, 1 μM DNA (in nucleotides) and 1.26 μM ethidium bromide in a quartz cuvette was measured at the excitation (546 nm) and emission (600 nm) wavelengths on a Shimadzu RF5000U spectrofluorometer. Graded concentrations of agent were then added and the fluorescence intensity was measured. The concentration of compound required to reduce the fluorescence intensity by 50% of that of control (FI50) was determined. Therefore, the lower the FI50 the stronger the binding affinity a particular compound has for DNA. […]

[5] = test system: B16 melanoma cell line; experiment: Growth inhibition (MTT), B16 melanoma cell line; format: cell-based, murine; conditions: for pIC50: B16, 3 days incubation, MTT
From the text: (§3) P388 murine leukemic cell line was obtained from the DCT Tumor Repository (National Cancer Institute, Frederick Cancer Research and Development, Frederick Md. 21702). HT29 Human Colon Carcinoma cell line was obtained from the American Type Culture Collection (12301 Parklawn Drive, Rockville, Md. 20852). B16 Melanoma cell line was obtained from DuPont Merck Pharmaceutical Company (Glenolden, Pa. 19036). MCF-7 Human Breast Carcinoma cell line was a gift from Dr. K. Osborne (Department of Medicine, The University of Texas Health Science Center at San Antonio, San Antonio, Tex. 78284). All cell lines were incubated at 37° C. in a humidified atmosphere of 5% CO2 -95% air. Murine B16 melanoma cell line was grown in RPMI 1640 medium supplemented with 10% heat-inactivated fetal bovine serum, 2 mM L-glutamine, 50 units/ml penicillin, 50 μg/ml streptomycin, 25 μg/ml gentamycin, 0.75% sodium bicarbonate, 10 mM HEPES buffer (pH 7.4), and 0.06 mg/ml AntiPPLO. Murine P388 leukemic and the human HT-29 colon adenocarcinoma cell lines were maintained in RPMI 1640 medium supplemented with 10% heat-inactivated fetal bovine serum. MCF-7M human breast adenocarcinoma was maintained in IMEM medium supplemented with 5% non heat-inactivated fetal bovine serum and 1 nM insulin.
(§4) Exponentially growing cells (1-2×10^3 cells, unless specified otherwise) in 0.1 ml medium were seeded on day 0 in a 96-well microtiter plate. On day 1, 0.1 ml aliquots of medium containing graded concentrations of test compounds were added in duplicate to the cell plates. After incubation at 37° C. in a humidified incubator for 3 days (P388, B16) or 6 days (HT-29, MCF-7M), the plates were centrifuged briefly and 100 μl of the growth medium was removed. Cell cultures were incubated with 50 μl of 3-(4,5-dimethylthiazol-2-yl)-2,5-diphenyl-tetrazolium bromide [MTT, 1 mg/ml in Dulbecco's phosphate buffered saline (PBS)] for 4 hr at 37° C. The resulting purple formazan precipitate was solubilized with 200 μl of 0.04N HCl in isopropyl alcohol. Absorbance was monitored in a BioRad Model 3550 Microplate Reader at a test wavelength of 570 nm and a reference wavelength of 630 nm. The absorbance was transferred to a PC 486 computer. The IC50 values were determined by a computer program (EZ-ED50) that fit all of the data to the following four-parameterlogistic equation:
(§5) Y=((Am -Ao)/(1+(X/IC50)^n))+Ao
(§6) where Am is the absorbance of control cells, Ao is the absorbance of cells in the presence of highest agent concentration, Y is the observed absorbance, X is the agent concentration, IC50 is the concentration of agent that inhibits the cell growth by 50% of control cells (based on the absorbance) and n is the slope of the curve.

[6] = test system: MCF-7 human breast carcinoma cell line; experiment: Growth inhibition (MTT), MCF-7 human breast carcinoma cell line; format: cell-based; conditions: 6 days incubation
From the text: as §3, §4, §5, §6

[7] = test system: HT29 human colon carcinoma cell line; experiment: Growth inhibition (MTT), HT29 human colon carcinoma cell line; format: cell-based; conditions: 6 days incubation
From the text: as §3, §4, §5, §6

[8] = test system: P388 murine leukemic cell line; experiment: Growth inhibition (MTT), P388 murine leukemic cell line; format: cell-based; conditions: Mus musculus, 72 h, 3 days incubation
From the text: P388 murine leukemic cell line was obtained from the DCT Tumor Repository (National Cancer Institute, Frederick Cancer Research and Development, Frederick Md. 21702). HT29 Human Colon Carcinoma cell line was obtained from the American Type Culture Collection (12301 Parklawn Drive, Rockville, Md. 20852). B16 Melanoma cell line was obtained from DuPont Merck Pharmaceutical Company (Glenolden, Pa. 19036). MCF-7 Human Breast Carcinoma cell line was a gift from Dr. K. Osborne (Department of Medicine, The University of Texas Health Science Center at San Antonio, San Antonio, Tex. 78284). All cell lines were incubated at 37° C. in a humidified atmosphere of 5% CO2 -95% air. […]
Exponentially growing cells (1-2×10^3 cells, unless specified otherwise) in 0.1 ml medium were seeded on day 0 in a 96-well microtiter plate. […] Absorbance was monitored in a BioRad Model 3550 Microplate Reader at a test wavelength of 570 nm and a reference wavelength of 630 nm. The absorbance was transferred to a PC 486 computer. The IC50 values were determined by a computer program (EZ-ED50) that fit all of the data to the following four-parameterlogistic equation: […]

[9] = test system: B16 melanoma; experiment: In vivo tumor inhibiting activity vs. B16 melanoma in B6D2F1 mice
Experimental: B16 Melanoma: B6D2F1 mice received i.p. inocula of B16 murine melanoma brei prepared from B16 tumors growing subcutaneously in mice (day 0). On day 1, rumored mice were treated with drugs or vehicle control; the route of drug administration and schedule were selected as appropriate for the study in question. If dosing information for agents was not available, the maximum tolerated dose (MTD) was determined in initial dose finding experiments in non-rumored mice. In a typical experiment, drugs were given at their MTD and 1/2 MTD doses i.p. on a daily×5 schedule.
The mean survival times of all groups were calculated, and results were expressed as mean survival of treated mice/mean survival of control mice (T/C)×100%. A T/C value of 150 means that the mice in the treated group lived 50% longer than those of the control group; this is sometimes referred to as the increase in life space, or ILS value.
Mice that survived for 60 days were considered long term survivors, or cures, in the B16 model. The universally accepted cut-off for activity in this model, which has been used for years by the National Cancer Institute, is T/C=125. Conventional use of B16 over the years has set the following levels of activity: T/C<125, no activity; T/C=125-150, weak activity; T/C=150-200, modest activity; T/C=200-300, high activity; T/C>300, with long term survivors, excellent, curative activity (Goldin et al., 1981).
Statistics were performed on the data using primarily the log rank p-value test.

[10] = test system: human cancers; conditions: literature; cited from earlier work
[11] = test system: topoisomerase II; conditions: Hsiang et al., 1989; cited from earlier work
[12] = cited from earlier work

## O=C1c2cccc3cc([N+](=O)[O-])cc(c23)C(=O)N1CCNCCOCCN1C(=O)c2cccc3cc([N+](=O)[O-])cc(c23)C1=O [Compound 5, 5-[2-(3-Nitronaphthalene-1,8-dicarboximido)ethylamino]-1-(3-nitronaphthalene-1,8-dicarboximido)-3-oxapentane]
[1]
  pIC50: 6.62
[2]
  pIC50: 7.15
[3]
  pIC50: 5.28
[4]
  Ratio (AT/GC): 73.5
[5]; Mus musculus, B16, 72 h
  pIC50: 7.70
[6]
  pIC50: 9.00
[7]; Homo sapiens, HT-29, 144 h
  pIC50: 8.52

## O=C1c2cccc3cc([N+](=O)[O-])cc(c23)C(=O)N1CCNCCOCCN1C(=O)c2cccc3cc([N+](=O)[O-])cc(c23)C1=O [Compound 6]
[4]; FIG. 1, graded concentrations
  Displacement of ethidium bromide / decrease in fluorescence intensity: dose-dependent decrease in fluorescence intensity
[8]
  pIC50: 7.46
[5]
  pIC50: 7.96
[6]
  pIC50: 8.59
[7]
  pIC50: 8.52
[9]; 15 mg/kg, q.d. × 5, i.p.
  Wt. Ch. (Day 7): -7.4%
[9]; comparator DMP840
  activity against B16 melanoma compared with DMP840: more effective against B16 melanoma
[9]; comparators DMP840, 22, 23, cytoxan
  activity compared with DMP840, compounds 22 and 23, and cytoxan: more active

## O=C1c2cccc3cc([N+](=O)[O-])cc(c23)C(=O)N1CCOCCOCCN1C(=O)c2cccc3cc([N+](=O)[O-])cc(c23)C1=O [Compound 19, 5-[2-(3-Nitronaphthalene-1,8-dicarboximido)ethoxy]-1-(3-nitronaphthalene-1,8-dicarboximido)-3-oxapentane]
[4]
  DNA binding (in words): did not bind to DNA
  Ratio (AT/GC): 1.7
[5]; B16 melanoma in vitro
  in vitro anticancer activity against B16 melanoma (in words): potent anticancer activity against this melanoma type

## O=C1c2cccc3cc([N+](=O)[O-])cc(c23)C(=O)N1CCNCCNCCN1C(=O)c2cccc3cc([N+](=O)[O-])cc(c23)C1=O [Compound 22, 2,2'[1,2-ethanediylbis[imino(2,1-ethanediyl)]]-bis[5-nitro-1H-benz[de]isoquinoline-1,3-(2H)-dione] dimethanesulfonate]
[1]
  pIC50: 7.28
[2]
  pIC50: 7.32
[3]
  pIC50: 6.10
[5]
  pIC50: 8.37
[6]
  pIC50: 9.28
[7]; Homo sapiens, HT-29, 144 h
  pIC50: 9.32
[9]; 2.5 mg/kg, q.d. × 5, i.p.
  Wt. Ch. (Day 7): -0.17%

## O=C1c2cccc3cc([N+](=O)[O-])cc(c23)C(=O)N1CCNCCNCCN1C(=O)c2cccc3cc([N+](=O)[O-])cc(c23)C1=O [Compound 23, 2,2'[1,2-ethanediylbis[imino(2,1-ethanediyl)]]-bis[5-nitro-1H-benz[de]isoquinoline-1,3-(2H)-dione] monomethanesulfonate]
[8]
  pIC50: 8.22
[5]
  pIC50: 7.89
[6]
  pIC50: 8.86
[7]
  pIC50: 9.28
[9]; 2.5 mg/kg, q.d. × 5, i.p.
  Wt. Ch. (Day 7): 0.95%

## O=P1(N(CCCl)CCCl)NCCCO1 (centres unmarked) [Cytoxan]
[9]; 300 mg/kg, q.d. × 1, i.p.
  Wt. Ch. (Day 7): -6.6%

## O=C1c2c(O)cccc2-c2nn(CCNCCO)c3ccc(NCCNCCO)c1c23 [DuP 941]
[10]
  clinical anti-tumor activity: exhibit clinical anti-tumor activity

## CN(C)CCN1C(=O)c2cccc3cc(N)cc(c23)C1=O [amonafide]
[11]
  intercalator-stabilized-topoisomerase II-DNA cleavable complex formation: result in intercalator-stabilized-topoisomerase II-DNA cleavable complex formation
  topoisomerase II inhibition: inhibit topoisomerase II

## COc1cc(NS(C)(=O)=O)ccc1Nc1c2ccccc2nc2ccccc12 [amsacrine]
[10]
  clinical anti-tumor activity: exhibit clinical anti-tumor activity

## COc1cccc2c1C(=O)c1c(O)c3c(c(O)c1C2=O)C[C@@](O)(C(C)=O)C[C@@H]3O[C@H]1C[C@H](N)[C@H](O)[C@H](C)O1 [daunorubicin]
[12]; human, in vivo
  cardiomyopathy: limited by an unusual cardiomyopathy

## COc1cccc2c1C(=O)c1c(O)c3c(c(O)c1C2=O)C[C@@](O)(C(=O)CO)C[C@@H]3O[C@H]1C[C@H](N)[C@H](O)[C@H](C)O1 [doxorubicin]
[12]; Calabresi and Chabner, 1990
  cardiomyopathy: limited by an unusual cardiomyopathy

## O=C1c2c(O)ccc(O)c2C(=O)c2c(NCCNCCO)ccc(NCCNCCO)c21 [mitoxantrone]
[10]
  clinical anti-tumor activity: exhibit clinical anti-tumor activity
